This is an account of results in paper PMC6026066 (Nature, 2018).

In test [1] the target is T1, Hs CMPK2 (Homo sapiens, UniProt Q5EBM0).
T1 sequence (Q5EBM0 99-449): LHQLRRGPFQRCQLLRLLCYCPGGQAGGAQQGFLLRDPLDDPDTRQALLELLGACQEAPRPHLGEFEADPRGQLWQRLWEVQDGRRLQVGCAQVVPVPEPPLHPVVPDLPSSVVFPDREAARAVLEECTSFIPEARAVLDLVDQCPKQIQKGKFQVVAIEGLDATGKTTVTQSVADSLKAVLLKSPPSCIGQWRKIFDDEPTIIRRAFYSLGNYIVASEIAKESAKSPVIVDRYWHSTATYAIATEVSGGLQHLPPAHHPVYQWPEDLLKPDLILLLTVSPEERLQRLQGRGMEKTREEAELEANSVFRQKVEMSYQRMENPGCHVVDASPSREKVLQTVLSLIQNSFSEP
As to the kind of experiment: kinase assay, CTP formation. Format: biochemical. The following applies: 1 mM CDP; phosphate donor ATP or GTP; 5 μM enzyme.

Test [2] deals with T1, Hs CMPK2. Description: kinase assay, UTP formation. Format: biochemical. The following applies: 1 mM UDP; phosphate donor ATP or GTP; 5 μM enzyme.
In another test the target is PV RdRp (Human poliovirus 1 Mahoney, UniProt P03300). Format: biochemical.
Sequence of PV RdRp (P03300 1749-2209 limits assumed): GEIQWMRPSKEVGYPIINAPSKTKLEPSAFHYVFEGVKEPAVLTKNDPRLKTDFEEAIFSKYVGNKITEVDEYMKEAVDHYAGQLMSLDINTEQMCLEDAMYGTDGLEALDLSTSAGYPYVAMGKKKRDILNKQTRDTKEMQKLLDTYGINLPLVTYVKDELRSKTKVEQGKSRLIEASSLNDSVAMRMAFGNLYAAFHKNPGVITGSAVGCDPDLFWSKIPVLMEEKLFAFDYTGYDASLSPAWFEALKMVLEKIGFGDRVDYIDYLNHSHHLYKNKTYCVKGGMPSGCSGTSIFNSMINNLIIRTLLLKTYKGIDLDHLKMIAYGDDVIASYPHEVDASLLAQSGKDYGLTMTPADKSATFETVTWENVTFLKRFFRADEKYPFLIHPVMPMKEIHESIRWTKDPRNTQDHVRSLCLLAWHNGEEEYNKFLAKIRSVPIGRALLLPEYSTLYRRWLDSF
The next test addresses T2, Hs viperin (Homo sapiens, UniProt Q8WXG1).
T2 sequence (Q8WXG1 1-361): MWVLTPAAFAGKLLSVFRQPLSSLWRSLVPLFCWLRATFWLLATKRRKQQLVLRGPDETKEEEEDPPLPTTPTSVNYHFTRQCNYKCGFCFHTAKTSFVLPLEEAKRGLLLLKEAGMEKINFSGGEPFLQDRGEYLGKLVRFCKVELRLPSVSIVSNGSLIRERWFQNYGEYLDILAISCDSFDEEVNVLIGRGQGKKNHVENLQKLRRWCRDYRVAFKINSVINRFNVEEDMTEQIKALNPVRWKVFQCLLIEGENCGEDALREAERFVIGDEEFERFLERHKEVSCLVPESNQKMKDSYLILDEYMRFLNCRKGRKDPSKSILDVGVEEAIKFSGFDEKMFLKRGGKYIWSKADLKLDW
Description: LC/MS of extracts of transfected HEK293T cells. Format: cell-based. The note with it: endogenous CTP and SAM; vector control.

Another test deals with DV RdRp (Dengue virus 2 Peru/IQT2913/1996, UniProt Q9WDA6). As to the kind of experiment: primer extension RNA synthesis, denaturing PAGE. In kind it is biochemical. The note with it: 0.1 μM CTP; competes with CTP; incorporated as chain terminator.
Sequence of DV RdRp (Q9WDA6 2492-3391): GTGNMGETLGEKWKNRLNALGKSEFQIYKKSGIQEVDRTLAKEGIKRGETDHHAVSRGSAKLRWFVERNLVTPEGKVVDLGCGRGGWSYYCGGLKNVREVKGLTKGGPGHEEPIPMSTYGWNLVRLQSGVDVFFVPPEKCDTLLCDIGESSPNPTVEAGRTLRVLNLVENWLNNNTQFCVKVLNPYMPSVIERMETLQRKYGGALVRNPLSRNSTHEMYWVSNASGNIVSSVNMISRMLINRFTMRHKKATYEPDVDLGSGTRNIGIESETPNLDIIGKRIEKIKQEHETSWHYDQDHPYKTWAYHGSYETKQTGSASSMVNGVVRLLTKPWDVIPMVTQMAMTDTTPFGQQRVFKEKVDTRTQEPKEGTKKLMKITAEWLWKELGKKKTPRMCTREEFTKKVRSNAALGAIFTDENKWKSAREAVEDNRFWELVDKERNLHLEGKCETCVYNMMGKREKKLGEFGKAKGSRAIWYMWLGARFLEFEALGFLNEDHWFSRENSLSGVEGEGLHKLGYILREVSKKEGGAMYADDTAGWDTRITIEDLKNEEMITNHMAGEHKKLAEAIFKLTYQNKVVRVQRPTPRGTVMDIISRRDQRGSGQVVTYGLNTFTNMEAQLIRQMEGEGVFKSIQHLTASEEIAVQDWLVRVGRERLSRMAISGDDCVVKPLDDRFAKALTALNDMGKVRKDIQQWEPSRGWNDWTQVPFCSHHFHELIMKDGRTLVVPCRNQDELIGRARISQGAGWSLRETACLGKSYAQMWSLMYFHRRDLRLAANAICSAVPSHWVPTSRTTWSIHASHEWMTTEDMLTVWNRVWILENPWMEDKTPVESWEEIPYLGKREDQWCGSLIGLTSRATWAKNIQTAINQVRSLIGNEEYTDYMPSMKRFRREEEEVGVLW
Another test has as its target WNV RdRp (West Nile virus strain NY-99, UniProt Q9Q6P4). Description: primer extension RNA synthesis, denaturing PAGE. Format: biochemical.
For a further test, the target named is T3, HRV-C RdRp (rhinovirus C15, UniProt E5D8F2).
T3 sequence (E5D8F2 1694-2153): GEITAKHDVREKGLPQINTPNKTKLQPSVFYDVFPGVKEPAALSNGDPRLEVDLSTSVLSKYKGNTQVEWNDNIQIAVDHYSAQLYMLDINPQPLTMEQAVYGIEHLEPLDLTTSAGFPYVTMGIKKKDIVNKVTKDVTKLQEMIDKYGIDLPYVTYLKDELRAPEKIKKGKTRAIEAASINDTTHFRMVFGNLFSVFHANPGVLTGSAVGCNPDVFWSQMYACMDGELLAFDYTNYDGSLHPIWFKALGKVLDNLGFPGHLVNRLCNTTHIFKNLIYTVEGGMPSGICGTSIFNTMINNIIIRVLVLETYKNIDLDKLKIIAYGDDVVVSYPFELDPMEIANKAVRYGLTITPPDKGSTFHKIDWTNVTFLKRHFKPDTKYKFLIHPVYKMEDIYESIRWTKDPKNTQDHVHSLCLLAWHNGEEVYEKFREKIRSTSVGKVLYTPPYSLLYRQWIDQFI
Description: primer extension RNA synthesis, denaturing PAGE. In kind it is biochemical.

Sequence of WNV RdRp (Q9Q6P4 2529-3433): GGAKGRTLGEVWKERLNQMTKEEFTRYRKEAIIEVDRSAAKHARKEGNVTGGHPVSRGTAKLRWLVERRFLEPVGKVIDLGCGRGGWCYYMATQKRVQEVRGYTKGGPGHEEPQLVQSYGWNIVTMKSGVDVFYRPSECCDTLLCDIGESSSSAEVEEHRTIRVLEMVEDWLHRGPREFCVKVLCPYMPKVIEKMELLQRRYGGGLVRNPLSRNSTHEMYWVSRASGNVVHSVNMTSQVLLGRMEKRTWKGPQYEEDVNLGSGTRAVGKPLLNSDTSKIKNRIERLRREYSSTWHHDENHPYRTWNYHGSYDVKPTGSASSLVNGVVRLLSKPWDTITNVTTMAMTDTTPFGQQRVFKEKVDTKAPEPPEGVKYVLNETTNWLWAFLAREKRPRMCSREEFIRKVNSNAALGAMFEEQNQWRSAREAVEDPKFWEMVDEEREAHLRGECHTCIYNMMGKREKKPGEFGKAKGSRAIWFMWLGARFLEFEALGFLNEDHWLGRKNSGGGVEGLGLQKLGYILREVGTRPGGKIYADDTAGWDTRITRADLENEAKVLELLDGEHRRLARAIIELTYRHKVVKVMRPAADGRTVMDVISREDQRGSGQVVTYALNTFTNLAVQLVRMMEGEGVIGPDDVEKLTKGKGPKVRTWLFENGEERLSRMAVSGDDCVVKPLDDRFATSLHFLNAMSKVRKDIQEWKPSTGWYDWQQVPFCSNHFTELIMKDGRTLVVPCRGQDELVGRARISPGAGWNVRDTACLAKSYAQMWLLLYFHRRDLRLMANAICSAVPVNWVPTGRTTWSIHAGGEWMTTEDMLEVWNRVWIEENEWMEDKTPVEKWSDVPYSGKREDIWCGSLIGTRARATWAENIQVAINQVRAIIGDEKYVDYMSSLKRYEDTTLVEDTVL

As for `Nc1ccn([C@@H]2O[C@H](COP(=O)(O)OP(=O)(O)O)[C@@H](O)[C@H]2O)c(=O)n1` [CDP], the “kinase assay, CTP formation” value at Hs CMPK2 [1] is “Hs CMPK2 exhibits significant preference for CDP and UDP as substrates”.
Turning to `O=c1ccn([C@@H]2O[C@H](COP(=O)(O)OP(=O)(O)O)[C@@H](O)[C@H]2O)c(=O)[nH]1` [UDP], the “kinase assay, UTP formation” value on Hs CMPK2 [2] is “Hs CMPK2 exhibits significant preference for CDP and UDP as substrates”.
In the case of `Nc1ccn([C@@H]2OC(COP(=O)(O)OP(=O)(O)OP(=O)(O)O)=C[C@H]2O)c(=O)n1` [ddhCTP], the “primer extension RNA synthesis, denaturing PAGE” value at PV RdRp is “both HRV-C and PV RdRp were poorly inhibited by ddhCTP”. For the same compound, the “LC/MS of extracts of transfected HEK293T cells” value on Hs viperin is “HEK293T cells transfected with the Hs viperin plasmid exhibited considerable intracellular ddhCTP levels”. Also, the results for the IC50 at DV RdRp, against WNV RdRp and on HRV-C RdRp were 60 ± 10 µM, 20 ± 10 µM and 900 ± 300 µM, respectively.
For the compound `Nc1ccn([C@@H]2O[C@H](COP(=O)(O)OP(=O)(O)OP(=O)(O)O)C[C@H]2O)c(=O)n1` [3′-dCTP], 5 ± 1 µM corresponded to half-maximal inhibition against HRV-C RdRp (IC50).
